Assay results as given in ChEMBL document CHEMBL5046286, “Discovery of MAP855, an Efficacious and Selective MEK1/2 Inhibitor with an ATP-Competitive Mode of Action” (J Med Chem, 2022).
In brackets after ≈: the same amount, converted by molar mass. Activity calls are given as the source filed them. The calls are words filed in the database; no cut-off is given here.

Columns and labels:
[1] = Permeability in PBS at pH 6.8 incubated for 5 hrs by PAMPA method; type: ADME; conditions: pH 6.8, 5 h
[2] = Octanol-water partition coefficient, logP of the compound by LC-MS analysis; type: physicochemical
[3] = Solubility of compound in water at pH 6.8 by shake flask method based HPLC/UV analysis; type: physicochemical
[4] = Solubility of compound in FaSSIF at pH 6.8 by shake flask method based HPLC/UV analysis; type: physicochemical
Cytochrome P450 3A4 = Cytochrome P450 3A4 (Homo sapiens, UniProt P08684); test: Inhibition of CYP3A4 (unknown origin); type: ADME
Sequence of Cytochrome P450 3A4 (P08684 whole entry): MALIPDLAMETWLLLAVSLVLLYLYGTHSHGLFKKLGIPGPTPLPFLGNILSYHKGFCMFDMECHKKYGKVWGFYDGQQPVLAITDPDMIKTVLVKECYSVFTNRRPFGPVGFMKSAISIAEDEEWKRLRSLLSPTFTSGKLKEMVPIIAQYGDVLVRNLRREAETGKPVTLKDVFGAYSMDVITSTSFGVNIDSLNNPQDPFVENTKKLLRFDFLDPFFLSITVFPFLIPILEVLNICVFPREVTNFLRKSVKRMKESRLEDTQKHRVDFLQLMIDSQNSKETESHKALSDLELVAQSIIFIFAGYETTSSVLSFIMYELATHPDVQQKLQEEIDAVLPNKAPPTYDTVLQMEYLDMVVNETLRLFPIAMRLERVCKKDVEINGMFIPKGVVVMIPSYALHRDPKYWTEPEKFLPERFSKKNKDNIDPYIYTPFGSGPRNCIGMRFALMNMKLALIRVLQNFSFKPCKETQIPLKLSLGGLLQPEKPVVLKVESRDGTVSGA

[5] = Dissociation constant, pKa of compound; type: physicochemical
[6] = molecular target: T1, Dual specificity mitogen-activated protein kinase kinase 1 (Homo sapiens, UniProt Q02750); conditions: time 120.0 min
T1 sequence (Q02750 whole entry): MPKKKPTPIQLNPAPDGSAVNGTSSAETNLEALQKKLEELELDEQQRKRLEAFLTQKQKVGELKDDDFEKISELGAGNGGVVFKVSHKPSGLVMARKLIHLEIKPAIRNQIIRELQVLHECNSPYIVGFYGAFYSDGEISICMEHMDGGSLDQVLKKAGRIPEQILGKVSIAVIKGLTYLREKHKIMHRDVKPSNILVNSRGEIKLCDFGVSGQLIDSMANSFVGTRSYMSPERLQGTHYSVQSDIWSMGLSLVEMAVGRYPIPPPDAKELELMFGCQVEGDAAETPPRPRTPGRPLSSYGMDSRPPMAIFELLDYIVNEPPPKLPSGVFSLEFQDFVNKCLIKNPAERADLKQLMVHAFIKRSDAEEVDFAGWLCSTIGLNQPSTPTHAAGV

[7] = Oral bioavailability in Wistar rat at 10 mg/kg measured up to 24 hrs by LC-MS/MS analysis; type: ADME, organism-based; conditions: in vivo; for bioavailability: Wistar
[8] = Clearance in Wistar rat at 3 mg/kg, iv measured up to 24 hrs by LC-MS/MS analysis; type: ADME, organism-based; conditions: in vivo
[9] = Inhibition of ERK phosphorylation in human A-375 cells incubated for 3 hrs by DELFIA assay; type: cell-based; conditions: A-375, 3 h
[10] = Clearence in CD-1 mouse at 3 mg/kg, iv; type: ADME, organism-based; conditions: in vivo
[11] = molecular target: T1, Dual specificity mitogen-activated protein kinase kinase 1; test: Inhibition of full-length human MEK1 by TR-FRET assay
[12] = AUC in CD1 mouse at 10 mg/kg, po measured up to 24 hrs by LC-MS/MS analysis; type: ADME, organism-based; design: route oral, dose 10 mg/kg, time <=24; conditions: in vivo
[13] = Volume of distribution at steady state in CD1 mouse at 3 mg/kg, iv measured up to 24 hrs by LC-MS/MS analysis; type: ADME, organism-based; conditions: in vivo, read-out: Vdss
Mus musculus [14] = test: In vivo inhibition of ERK phosphorylation in human A-375 cells xenografted CD1 mouse at 30 mg/kg bid via oral gavage measured after 8 hrs by ELISA method; type: functional, organism-based
[15] = Toxicity in CD1 mouse xenografted with human A-375 cells assessed as body weight loss at 30 mg/kg bid via oral gavage; type: organism-based; conditions: in vivo
Mus musculus [16] = test: In vivo inhibition of MEK phosphorylation in human A-375 cells xenografted CD1 mouse at 30 mg/kg bid via oral gavage measured after 8 hrs by ELISA method; type: functional, organism-based
[17] = Volume of distribution at steady state in Beagle dog at 3 mg/kg, iv measured up to 24 hrs by LC-MS/MS analysis; type: ADME, organism-based, Canis lupus familiaris; conditions: in vivo, read-out: Vdss
[18] = Oral bioavailability in CD1 mouse at 10 mg/kg measured up to 24 hrs by LC-MS/MS analysis; type: ADME, organism-based; conditions: in vivo
[19] = AUC in Beagle dog at 10 mg/kg, po measured up to 24 hrs by LC-MS/MS analysis; type: ADME, organism-based, Canis lupus familiaris; design: route oral, dose 10 mg/kg, time <=24; conditions: in vivo
[20] = Oral bioavailability in Beagle dog at 10 mg/kg measured up to 24 hrs by LC-MS/MS analysis; type: ADME, organism-based, Canis lupus familiaris; conditions: in vivo
[21] = system: Serine/threonine-protein kinase B-raf (Homo sapiens), P15056 [V600E]; test: Inhibition of full length human BRAF V599E mutant using LCB-FFKNIVTPRTPPP as substrate preincubated for 45 mins followed by substrate addition and measured after 90 mins; conditions: time 135.0 min
Sequence of Serine/threonine-protein kinase B-raf (Homo sapiens), P15056 [V600E] (P15056 whole entry V600E): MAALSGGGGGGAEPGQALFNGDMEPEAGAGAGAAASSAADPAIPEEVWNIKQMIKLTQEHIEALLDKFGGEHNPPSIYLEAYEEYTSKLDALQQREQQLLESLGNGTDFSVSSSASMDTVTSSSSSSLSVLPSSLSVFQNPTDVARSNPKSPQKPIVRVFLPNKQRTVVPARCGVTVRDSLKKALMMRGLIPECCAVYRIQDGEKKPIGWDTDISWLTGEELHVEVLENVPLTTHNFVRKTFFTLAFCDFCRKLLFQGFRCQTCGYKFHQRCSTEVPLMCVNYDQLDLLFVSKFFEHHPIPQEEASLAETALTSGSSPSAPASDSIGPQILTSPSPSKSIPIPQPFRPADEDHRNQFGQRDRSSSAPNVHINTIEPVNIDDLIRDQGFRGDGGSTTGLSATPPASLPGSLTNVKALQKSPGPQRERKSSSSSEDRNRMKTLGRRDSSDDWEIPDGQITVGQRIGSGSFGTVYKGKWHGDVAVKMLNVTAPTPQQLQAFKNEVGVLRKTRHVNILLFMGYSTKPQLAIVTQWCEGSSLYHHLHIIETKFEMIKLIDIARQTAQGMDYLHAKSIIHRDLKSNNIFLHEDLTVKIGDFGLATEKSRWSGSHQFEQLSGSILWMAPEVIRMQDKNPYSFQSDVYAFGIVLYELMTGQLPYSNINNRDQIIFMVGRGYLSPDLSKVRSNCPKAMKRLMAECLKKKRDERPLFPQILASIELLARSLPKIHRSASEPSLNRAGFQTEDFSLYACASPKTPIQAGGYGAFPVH

[22] = AUC in Wistar rat at 10 mg/kg, po measured up to 24 hrs by LC-MS/MS analysis; type: ADME, organism-based; design: route oral, dose 10 mg/kg, time <=24; conditions: in vivo
Mus musculus [23] = test: In vivo inhibition of SPRY4 in human A-375 cells xenografted CD1 mouse at 30 mg/kg bid via oral gavage measured after 8 hrs by RT-PCR method; type: functional, organism-based
[24] = molecular target: Mitogen-activated protein kinase 1 (Homo sapiens) (UniProt P28482); test: Inhibition of full length human ERK2 using LCB-FFKNIVTPRTPPP as substrate preincubated for 45 mins followed by substrate addition and measured after 90 mins; conditions: time 135.0 min
Sequence of Mitogen-activated protein kinase 1 (Homo sapiens) (P28482 whole entry): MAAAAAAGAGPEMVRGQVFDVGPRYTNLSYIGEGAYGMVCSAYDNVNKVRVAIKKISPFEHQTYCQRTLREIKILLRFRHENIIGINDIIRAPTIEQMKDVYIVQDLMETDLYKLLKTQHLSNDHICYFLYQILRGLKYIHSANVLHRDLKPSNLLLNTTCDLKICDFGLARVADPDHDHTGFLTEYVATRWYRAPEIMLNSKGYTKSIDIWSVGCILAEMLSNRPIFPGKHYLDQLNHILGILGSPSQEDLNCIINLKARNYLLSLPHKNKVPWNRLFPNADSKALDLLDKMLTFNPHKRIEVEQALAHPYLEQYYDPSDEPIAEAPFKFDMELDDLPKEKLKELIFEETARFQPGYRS

Mus musculus [25] = test: In vivo inhibition of DUSP6 in human A-375 cells xenografted CD1 mouse at 30 mg/kg bid via oral gavage measured after 8 hrs by RT-PCR method; type: functional, organism-based
[26] = molecular target: High affinity nerve growth factor receptor (Homo sapiens, UniProt P04629); test: Inhibition of wild-type human partial length TRKA (G475 to G790 residues) expressed in mammalian expression system by Kinomescan method
Sequence of High affinity nerve growth factor receptor (P04629 whole entry, the tested form may be a part): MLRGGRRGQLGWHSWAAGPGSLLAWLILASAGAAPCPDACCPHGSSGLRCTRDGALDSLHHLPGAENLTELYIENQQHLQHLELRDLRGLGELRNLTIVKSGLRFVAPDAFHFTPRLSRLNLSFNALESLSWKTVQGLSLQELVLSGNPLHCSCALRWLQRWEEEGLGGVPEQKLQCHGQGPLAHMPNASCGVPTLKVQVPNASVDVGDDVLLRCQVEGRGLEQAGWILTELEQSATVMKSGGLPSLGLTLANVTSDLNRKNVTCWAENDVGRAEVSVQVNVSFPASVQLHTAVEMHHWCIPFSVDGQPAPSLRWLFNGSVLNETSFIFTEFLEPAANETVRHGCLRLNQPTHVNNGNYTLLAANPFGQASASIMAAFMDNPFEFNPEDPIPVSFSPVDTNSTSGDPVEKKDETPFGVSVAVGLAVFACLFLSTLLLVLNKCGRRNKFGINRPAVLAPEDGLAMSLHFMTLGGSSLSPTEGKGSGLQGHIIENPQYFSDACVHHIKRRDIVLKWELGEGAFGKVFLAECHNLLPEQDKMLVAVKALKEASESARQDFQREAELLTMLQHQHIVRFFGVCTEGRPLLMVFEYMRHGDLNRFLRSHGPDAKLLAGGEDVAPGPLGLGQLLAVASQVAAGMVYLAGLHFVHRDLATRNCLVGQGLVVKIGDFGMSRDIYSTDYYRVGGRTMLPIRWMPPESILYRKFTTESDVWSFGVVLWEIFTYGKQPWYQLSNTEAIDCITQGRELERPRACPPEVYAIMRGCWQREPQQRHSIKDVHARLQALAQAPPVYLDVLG

[27] = Volume of distribution at steady state in Wistar rat at 3 mg/kg, iv measured up to 24 hrs by LC-MS/MS analysis; type: ADME, organism-based; conditions: in vivo, read-out: Vdss
[28] = Protein binding in human plasma assessed as free fraction; type: ADME, cell-free
A-375 = test: Antitumor activity against human A-375 cells xenografted in CD1 mouse assessed as tumor growth inhibition at 30 mg/kg bid via oral gavage; type: functional; conditions: A-375, po, read-out: TGI

log(permeability) [1]	logP [2]	solubility thermodynamic [3] [µM]	solubility thermodynamic [4] [µM]	IC50 (Cytochrome P450 3A4) [nM]	Compound	further results
-4.7		< 4	22 (≈ 12.3 µg/mL)		CC(O)c1nc2cnc3cc(F)c(-c4ccc(Oc5ncccn5)cc4Cl)cc3c2n1C1CCN(CC#N)CC1 (stereo not drawn)	
-4.5	4.9	< 4	< 4		N#CCN1CCC(n2c(CO)nc3cnc4cc(F)c(-c5ccc(Oc6ccccn6)cc5Cl)cc4c32)CC1	
	1.2			1200	Cc1nc2cnc3cc(F)c(-c4ccc(Oc5ncccn5)cc4Cl)cc3c2n1[C@H]1CC[C@@](N)(CC#N)CC1	
-4.7	3.3	11 (≈ 5.81 µg/mL)	106 (≈ 56 µg/mL)	1600	Cc1nc2cnc3cc(F)c(-c4ccc(Oc5ncccn5)cc4Cl)cc3c2n1C1CCN(CC#N)CC1	bioavailability [7]: 0%; clearance [8]: 16 mL/min/kg; IC50 [9]: 60 nM
	4.2			1500	CC1(n2cnc3cnc4cc(F)c(-c5ccc(Oc6ncccn6)cc5Cl)cc4c32)CCN(CC#N)CC1	clearance [10]: 35 mL/min/kg; IC50 [9]: 80 nM
-6.9	3.2	31 (≈ 17.2 µg/mL)	42 (≈ 23.3 µg/mL)		COc1cc(Oc2ncccn2)ccc1-c1cc2c(cc1F)ncc1nc(C(C)O)n(C3CCN(CC#N)CC3)c12 (stereo not drawn)	
-5.3	3.5	12 (≈ 6.53 µg/mL)	6 (≈ 3.26 µg/mL)		N#CCN1CCC(n2c(CO)nc3cnc4cc(F)c(-c5ccc(Oc6ncccn6)cc5Cl)cc4c32)CC1	
-4.7		< 4	22 (≈ 12.3 µg/mL)		CC(O)c1nc2cnc3cc(F)c(-c4ccc(Oc5ccccn5)cc4Cl)cc3c2n1C1CCN(CC#N)CC1 (stereo not drawn)	
-4.6	4.4	< 4	9 (≈ 4.97 µg/mL)		COc1cc(Oc2ccccn2)ccc1-c1cc2c(cc1F)ncc1nc(C(C)O)n(C3CCN(CC#N)CC3)c12 (stereo not drawn)	
-4.5	2.3	33 (≈ 17.3 µg/mL)	221 (≈ 116 µg/mL)		COc1cc(Oc2ncccn2)ccc1-c1cc2c(cc1F)ncc1nc(C)n(C3CCN(CC#N)CC3)c12	
				12100	Cc1nc2cnc3cc(F)c(-c4ccc(Oc5ncccn5)cc4Cl)cc3c2n1[C@H]1CC[C@](N)(CC#N)CC1	
-4.1	5.1	< 4	175 (≈ 92.2 µg/mL)		Cc1nc2cnc3cc(F)c(-c4ccc(Oc5ccccn5)cc4Cl)cc3c2n1C1CCN(CC#N)CC1	
-4.5	3				N#CCN1CCC(n2cnc3cnc4cc(F)c(-c5ccc(Oc6ncccn6)cc5Cl)cc4c32)CC1	
-4.2	5.3				N#CCN1CCC(n2cnc3cnc4cc(F)c(-c5ccc(Oc6ccccn6)cc5Cl)cc4c32)CC1	pKa [5]: 4.1; IC50 [11]: 70 nM; EC50 [9]: 400 nM
	2			11000	Cc1nc2cnc3cc(F)c(-c4ccc(Oc5ncccn5)cc4Cl)cc3c2n1C1CCN(C(=O)CO)CC1	bioavailability [7]: 37%; fraction unbound [28]: 0.05; inhibition in vivo at 30 mg/kg (A-375): 41%; clearance [8]: 34 mL/min/kg; EC50 [9]: 50000 nM

Second part, the compound before the results:

Compound	log(permeability) [1]	logP [2]	solubility thermodynamic [3] [µM]	solubility thermodynamic [4] [µM]	IC50 (Cytochrome P450 3A4) [nM]	further results
COc1cc(Oc2ccccn2)ccc1-c1cc2c(cc1F)ncc1ncn(C3CCN(CC#N)CC3)c12	-4.2	5.3				
COCC(=O)N1CC[C@H](n2c(C)nc3cnc4cc(F)c(-c5ccc(Oc6ncccn6)cc5Cl)cc4c32)[C@@H](F)C1		3.2			5000	
Fc1cc2ncc3ncn(C4CCNCC4)c3c2cc1-c1ccc(Oc2ccccn2)cc1Cl	-4.5	4.8	47 (≈ 22.3 µg/mL)			pKa [5]: 8.4
CC(=O)Nc1cccc(-n2c(=O)n(C3CC3)c(=O)c3c(Nc4ccc(I)cc4F)n(C)c(=O)c(C)c32)c1						T1/2 [6]: 0.417 h
N#CCc1ccc(-n2cnc3cnc4cc(F)c(-c5ccc(Oc6ccccn6)cc5Cl)cc4c32)cc1					< 500	bioavailability [7]: 5%; clearance [8]: 8 mL/min/kg; EC50 [9]: 3000 nM
COc1cc(Oc2ccccn2)ccc1-c1cc2c(cc1F)ncc1nc(C)n(C3CCN(CC#N)CC3)c12	-3.9	4.6	< 4	22 (≈ 11.5 µg/mL)		
COc1cc(Oc2ccccn2)ccc1-c1cc2c(cc1F)ncc1nc(CO)n(C3CCN(CC#N)CC3)c12	-5	4.4	< 4	7 (≈ 3.77 µg/mL)		
N#CCc1ccc(-n2cnc3cnc4cc(F)c(-c5ccc6[nH]ccc6c5)cc4c32)cc1						IC50 [11]: 2600 nM; EC50 [9]: 5800 nM
Cc1nc2cnc3cc(F)c(-c4ccc(Oc5ncccn5)cc4Cl)cc3c2n1[C@H]1CCN(C(=O)CO)C[C@@H]1F		1.6			7700	AUC [12]: 0.4 µM·h; T1/2 [6]: 1.62 h; Vd [13]: 2.6 L/kg; Activity (Mus musculus [14]): Active; F ([7]; 10 mg/kg, 24 h): 65%; Activity [15]: Non-Toxic; Activity (Mus musculus [16]): Active; Vd [17]: 1.8 L/kg; F [18]: 44%; AUC [19]: 1.4 µM·h; F [20]: 100%; inhibition [21]: inactive; AUC [22]: 0.6 µM·h; Activity (Mus musculus [23]): Active; inhibition [24]: inactive; Activity (Mus musculus [25]): Active; IC50 [26]: 25 nM; Vd [27]: 2 L/kg; EC50 [9]: 5000 nM
N#CC[C@]1(N)CC[C@@H](n2cnc3cnc4cc(F)c(-c5ccc(Oc6ncccn6)cc5Cl)cc4c32)CC1		5.7			5700	
CC1(n2cnc3cnc4cc(F)c(-c5ccc(Oc6ncccn6)cc5Cl)cc4c32)CCC(CC#N)CC1 (stereo not drawn)		4.6			< 500	clearance [10]: 6 mL/min/kg
Cc1ccnc(Oc2ccc(-c3cc4c(cc3F)ncc3nc(C)n([C@H]5CCN(C(=O)CO)C[C@@H]5F)c34)c(Cl)c2)n1		2.6			2000	EC50 [9]: 7000 nM
N#CCN1CCN(n2cnc3cnc4cc(F)c(-c5ccc(Oc6ncccn6)cc5Cl)cc4c32)CC1		3.2				IC50 [9]: 120 nM
CC(=O)N1CC[C@H](n2c(C)nc3cnc4cc(F)c(-c5ccc(Oc6ncccn6)cc5Cl)cc4c32)[C@@H](F)C1						EC50 [9]: 64000 nM
O=C(CO)N1CC[C@H](n2cnc3cnc4cc(F)c(-c5ccc(Oc6ncccn6)cc5Cl)cc4c32)[C@@H](F)C1		2.3			> 20000	
Cc1cc(Oc2ncccn2)ccc1-c1cc2c(cc1F)ncc1nc(C)n([C@H]3CCN(C(=O)CO)C[C@@H]3F)c12		2			> 20000	EC50 [9]: 19000 nM
OCCN1CCC(n2cnc3cnc4cc(F)c(-c5ccc(Oc6ccccn6)cc5Cl)cc4c32)CC1	-4.4	4.6	67 (≈ 34.7 µg/mL)			pKa [5]: 6.9
